The text below walks through data of PubChem BioAssay (NCI).

The structures appear in SMILES notation.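 Step 1: Grow cells in 96-well plates. Step 2: Expose to compound for 48 hours at 5 concentrations. Step 3: Interpolate endpoints linearly; if unreached, use highest concentration. TGI marks complete inhibition of growth.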 Where only a bound is given, the exact number is not on record here.

Test systems include HOP-92 NSCLC; SF-268 CNS; NCI-H522 lung; SW-620 colon; SF-539 CNS; NCI-H23 lung; CCRF-CEM leukemia; RPMI-8226 leukemia; K-562 leukemia; MCF7 breast; MALME-3M melanoma.
Common to all, as to test: NCI anticancer screen, dose series, 48 h

Turning to `Cc1nc(Nc2nnc(-c3cc([N+](=O)[O-])cc([N+](=O)[O-])c3C)o2)sc1C(=O)CC(=O)Cc1nc2ccc(Cl)cc2[nH]c1=O`, the TGI with HOP-92 NSCLC, with SF-268 CNS, in the assay with NCI-H522 lung, in the assay on SW-620 colon, with SF-539 CNS and with NCI-H23 lung was greater than 100 µM in each case. Further, the TGI in the assay with CCRF-CEM leukemia, with RPMI-8226 leukemia and with K-562 leukemia was greater than 100 µM each time.
For `CC(=O)O[C@H]1CC[C@H]2[C@@H]3CCc4cc(O)c(I)cc4[C@H]3CC[C@]12C`, the TGI in the assay with MCF7 breast was 33.8 µM; in the assay on SF-268 CNS it was 28.4 µM; in the assay on NCI-H522 lung it was 25.2 µM; in the assay on MALME-3M melanoma, 37 µM; with SW-620 colon, 27.7 µM; in the assay with SF-539 CNS, 29.7 µM. In addition, the figures for the TGI in the assay on NCI-H23 lung, with RPMI-8226 leukemia and in the assay on K-562 leukemia were 27.4 µM, 41.9 µM and greater than 100 µM, respectively.
With `CCOC(=O)Cc1ccc(Nc2nc3cc(C(F)(F)F)ccc3nc2C(=O)OCC)cc1`, the TGI with MCF7 breast, with HOP-92 NSCLC, in the assay on SF-268 CNS, with NCI-H522 lung, with MALME-3M melanoma and in the assay with SW-620 colon was greater than 100 µM each time. Also, the TGI in the assay with SF-539 CNS is 55.3 µM; with NCI-H23 lung, greater than 100 µM.
On to `O=C1CC2[C@@H](N3CCCC3)CCC(N1Cc1ccccc1)C2(O)O` (some centres not stated), for which the TGI in the assay on MCF7 breast, in the assay on HOP-92 NSCLC, in the assay on SF-268 CNS, in the assay on NCI-H522 lung, in the assay with MALME-3M melanoma and in the assay on SW-620 colon was greater than 100 µM in each case. Moreover, the TGI in the assay with SF-539 CNS, with NCI-H23 lung, in the assay with CCRF-CEM leukemia and with K-562 leukemia was greater than 100 µM throughout.
Turning to `Cn1c(=O)n(-c2c3ccccc3c(Cl)c3ccccc23)n(C(C)(C)C)c1=O`, the TGI in the assay with MCF7 breast, with HOP-92 NSCLC, with SF-268 CNS, in the assay on NCI-H522 lung, in the assay with MALME-3M melanoma and in the assay with SW-620 colon was greater than 100 µM in each case. Moreover, the TGI with SF-539 CNS, with NCI-H23 lung, in the assay on CCRF-CEM leukemia and in the assay on K-562 leukemia was greater than 100 µM each time.
On to `O=[N+]([O-])C(/C(Cl)=C(/Cl)N1CCCCC1)=C1\NCCO1`, for which the TGI with MCF7 breast, in the assay on SF-268 CNS, in the assay with MALME-3M melanoma, in the assay on SW-620 colon, in the assay on SF-539 CNS and in the assay with NCI-H23 lung was greater than 100 µM in each case. The TGI in the assay with CCRF-CEM leukemia and with RPMI-8226 leukemia was greater than 100 µM throughout.
For the compound `Cc1cc(S(=O)(=O)Nc2nc(N)n(-c3cnc4ccccc4n3)n2)c(S)cc1Cl`, the TGI in the assay on MCF7 breast was greater than 100 µM; in the assay with HOP-92 NSCLC, 89.2 µM; in the assay with SF-268 CNS, greater than 100 µM; with NCI-H522 lung, greater than 100 µM; in the assay with MALME-3M melanoma, greater than 100 µM; in the assay with SW-620 colon it was greater than 100 µM. Further, the TGI in the assay with SF-539 CNS, in the assay on CCRF-CEM leukemia and in the assay on K-562 leukemia was greater than 100 µM throughout.
Regarding `COc1ccc(-c2oc3c(CC(=O)O)cccc3c(=O)c2OC)cc1`, the TGI with MCF7 breast, with SF-268 CNS, in the assay with NCI-H522 lung, in the assay on MALME-3M melanoma, in the assay on SF-539 CNS and in the assay on NCI-H23 lung was greater than 100 µM in each case. The TGI with CCRF-CEM leukemia and in the assay on K-562 leukemia was greater than 100 µM each time.
In the case of `CS(=O)(=O)c1nc(N)nc2nc[nH]c12`, the TGI in the assay with HOP-92 NSCLC, in the assay with SF-268 CNS, with NCI-H522 lung, in the assay with SW-620 colon, in the assay with SF-539 CNS and in the assay on NCI-H23 lung was greater than 100 µM each time. The TGI in the assay on CCRF-CEM leukemia, with RPMI-8226 leukemia and in the assay with K-562 leukemia was greater than 100 µM in each case.
In the case of `CCOC(=O)CSc1nc2ccccc2c(=O)n1N`, the TGI in the assay on MCF7 breast, with HOP-92 NSCLC, in the assay on SF-268 CNS, in the assay with NCI-H522 lung, in the assay with MALME-3M melanoma and in the assay on SW-620 colon was greater than 100 µM throughout. The TGI with SF-539 CNS, in the assay on NCI-H23 lung, with RPMI-8226 leukemia and in the assay with K-562 leukemia was greater than 100 µM in each case.
As to `CCSC(=Nc1ccccc1)SC`, the TGI with HOP-92 NSCLC, in the assay on SF-268 CNS, in the assay with NCI-H522 lung, in the assay with MALME-3M melanoma, with SW-620 colon and with SF-539 CNS was greater than 100 µM each time. The TGI with NCI-H23 lung, in the assay on CCRF-CEM leukemia, in the assay on RPMI-8226 leukemia and in the assay with K-562 leukemia was greater than 100 µM throughout.
As to `Cc1c(O)c(OC2OC(CO)C(O)C(O)C2O)cc2c1CC[C@@H]1C2(C)C(=O)C[C@]2(C)[C@@H]([C@@](C)(O)C(O)/C=C/C(C)(C)O)[C@H](O)C[C@@]12C` (some centres not stated), the TGI with MCF7 breast, in the assay on HOP-92 NSCLC, with SF-268 CNS, in the assay on NCI-H522 lung, with MALME-3M melanoma and in the assay with SW-620 colon was greater than 100 µM in each case. In addition, the TGI in the assay on SF-539 CNS, in the assay on NCI-H23 lung, with CCRF-CEM leukemia and in the assay on K-562 leukemia was greater than 100 µM in each case.
`CC1CC(N)=Nc2ccccc2N1Cc1ccccc1` (configuration not stated): the TGI was determined as 26.4 µM with SF-268 CNS; 25.3 µM with NCI-H522 lung; 15.4 µM in the assay on MALME-3M melanoma; 25.2 µM in the assay on SW-620 colon; 31.1 µM in the assay with NCI-H23 lung; 33.7 µM in the assay on CCRF-CEM leukemia. For the same compound, the TGI worked out at 17.2 µM in the assay on RPMI-8226 leukemia and 15.7 µM with K-562 leukemia.
As to `CCCSc1cc(Cl)c(C)cc1S(=O)(=O)n1cc[nH]c1=O`, the TGI with MCF7 breast, in the assay on SF-268 CNS, in the assay on NCI-H522 lung, with MALME-3M melanoma, in the assay on SW-620 colon and in the assay on SF-539 CNS was greater than 100 µM each time. For the same compound, the TGI in the assay on NCI-H23 lung, in the assay on CCRF-CEM leukemia and in the assay with K-562 leukemia was greater than 100 µM throughout.
For `CN(C(=O)OC(C)(C)C)[C@H]1CCCC[C@H]1N1CCCC1`, the TGI in the assay on MCF7 breast, in the assay with SF-268 CNS, in the assay with NCI-H522 lung, with MALME-3M melanoma, in the assay with SW-620 colon and in the assay with SF-539 CNS was greater than 100 µM in each case. Further, the TGI in the assay on NCI-H23 lung, with CCRF-CEM leukemia, with RPMI-8226 leukemia and in the assay on K-562 leukemia was greater than 100 µM throughout.
